The values that follow come from PubChem BioAssay AID1949 (Southern Research Institute, 2009).

The test system of the assay is M. tuberculosis H37Rv growth inhibition. The assay is described as follows: Confirmatory growth inhibition assay against Mycobacterium tuberculosis H37Rv, potency (AID 1949).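 Further: bacteria grown 7 days with compound before Alamar blue readout.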

Each structure is given as a SMILES string. Converted amounts (≈) assume the structure as drawn. Results filed as inconclusive are left out. The source made the active and inactive calls. How the calls were made is not given here.

As usually defined, the IC50 is the concentration at which inhibition is half-maximal.

With `O=C(Oc1cccc2cccnc12)c1ccc(S(=O)(=O)N2CCCCC2)cc1`, the IC50 is 1.48 µg/mL (≈ 3.73 µM).

On to `O=[N+]([O-])c1ccc(-c2[nH]c(-c3cccc(F)c3)nc2-c2ccccc2)cc1`, for which the IC50 is 2.62 µg/mL (≈ 7.29 µM).

For `CC(C)(C)c1ccc(OCC(=O)Nc2ccc(F)c(Cl)c2)cc1`, the IC50 is 13.7 µg/mL (≈ 40.9 µM).

As for `Nc1ccc2nc(SCC(=O)Nc3cccc(Cl)c3)sc2c1`, the IC50 is > 50 µg/mL (inactive).

Turning to `COc1ccc(F)cc1CN1CCN(c2ncnc3scc(-c4ccc(F)cc4)c23)CC1`, the IC50 is > 50 µg/mL (inactive).

With `O=C(c1ccc2ccccc2c1)N(C1CCCCC1)C1CCCCC1`, the IC50 was 43 µg/mL (≈ 128 µM).

`Cc1cccc(C(C)(C)C)c1OCCn1ccnc1`: the IC50 is 8.23 µg/mL (≈ 31.9 µM).

Regarding `COc1ccc(-c2ccc(C#N)c(SCC(=O)OCc3ccccc3)n2)cc1`, the half-maximal inhibitory concentration (IC50) was 14.3 µg/mL (≈ 36.5 µM).

With `Cc1ccc(NC(=O)COc2cccc(C=O)c2)cc1Cl`, the IC50 was 5.9 µg/mL (≈ 19.4 µM).

Regarding `Cc1ccc(NC(=S)Nc2ccc(Cl)c(Cl)c2)c(OC(F)F)c1`, the IC50 is 2.92 µg/mL (≈ 7.74 µM).

On to `N#CSc1ccc(NC(=O)CSc2nc3ccccc3[nH]2)cc1`, for which the IC50 is 6.24 µg/mL (≈ 18.3 µM).

Take `O=C(Oc1c(Cl)cc(Cl)c2cccnc12)c1cc(S(=O)(=O)N2CCCCC2)ccc1Cl`: the concentration for half-maximal inhibition (IC50) is 0.48 µg/mL (≈ 0.96 µM).

Turning to `O=C(Nc1cccc(C(F)(F)F)c1)Nc1cc(F)c(F)cc1Cl`, the IC50 is 19.5 µg/mL (≈ 55.5 µM).

On to `CC(C)OC(=O)COc1ccc(C(=O)NCc2ccccc2)cc1`, for which the IC50 is 0.91 µg/mL (≈ 2.78 µM).

As to `COc1ccc2oc(=O)c(C(=O)Oc3ccc(Cl)cc3)cc2c1`, the IC50 is > 50 µg/mL (inactive).

Regarding `CN1C(=O)N(C)c2ccc(C=O)c3cccc1c23`, the IC50 is > 50 µg/mL (inactive).

For the molecule `O=C1C(=O)N(Cc2ccccc2Cl)c2ccc(Br)cc21`, the half-inhibitory concentration (IC50) is 3.79 µg/mL (≈ 10.8 µM).

`CC(NC(=O)NNC(=O)c1ccncc1)(C(F)(F)F)C(F)(F)F`: the half-maximal inhibitory concentration (IC50) was 0.18 µg/mL (≈ 0.523 µM).

Regarding `CCOC(=O)/C(C#N)=C/c1ccc(-c2ccc(F)cc2)o1`, the concentration for half-maximal inhibition (IC50) is 0.25 µg/mL (≈ 0.876 µM).

For the molecule `COC(=O)COc1ccc2c(=O)c(-c3ccc(Cl)cc3)coc2c1`, the half-maximal inhibitory concentration (IC50) is 0.99 µg/mL (≈ 2.87 µM).

As to `O=C(Nc1nc2c(Cl)cccc2s1)c1ccc([N+](=O)[O-])o1`, the IC50 was 1.58 µg/mL (≈ 4.88 µM).

Turning to `O=[N+]([O-])c1cccc(NC(=S)Nc2ccc(Cl)c(C(F)(F)F)c2)c1`, the IC50 is 2.62 µg/mL (≈ 6.97 µM).

Consider `CCc1ccc(S(=O)(=O)Nc2ccc(I)cc2)cc1`, for which the half-inhibitory concentration (IC50) is 11.7 µg/mL (≈ 30.1 µM).

Regarding `CCOC(=O)COc1ccc2c(=O)c(-c3ccc(OC)cc3)c(C)oc2c1`, the IC50 is 1.29 µg/mL (≈ 3.5 µM).

As for `O=C(O)c1ccc(C2Nc3ccc([N+](=O)[O-])cc3C3c4ccccc4CC23)cc1` (stereo not given), the IC50 was > 50 µg/mL (inactive).

`CCOC(=O)c1ccc(NC(=S)NC(NC(=O)c2ccc(Br)cc2)C(Cl)(Cl)Cl)cc1` (stereo not given): the half-inhibitory concentration (IC50) is 6.15 µg/mL (≈ 11.1 µM).

`COc1cc(CNc2nccs2)cc(Br)c1OCc1ccc(F)cc1`: the IC50 is 11.5 µg/mL (≈ 27.1 µM).

Regarding `Cc1ccc(-c2nc(NC(=O)C34CC5CC(CC(C5)C3)C4)sc2C)cc1`, the IC50 was > 50 µg/mL (inactive).

Take `Cc1cccc(-c2nnc(SCC(=O)NCCc3ccccc3)o2)c1`: the IC50 was 0.25 µg/mL (≈ 0.707 µM).

With `Cc1ccc(C(C)C)c(OCCNCc2ccccc2)c1`, the IC50 is > 50 µg/mL (inactive).

Take `O=[N+]([O-])c1ccc(Sc2n[nH]c(-c3ccccc3)n2)nc1`: the 50% inhibitory concentration (IC50) was 10 µg/mL (≈ 33.5 µM).

With `CC(C)(C)c1ccc(C(=O)NC(=S)NCc2ccco2)cc1`, the IC50 is 2.16 µg/mL (≈ 6.83 µM).

Consider `Cc1ccc(NC(=O)Nc2ccc([N+](=O)[O-])cc2)cc1F`, for which the IC50 is 13.2 µg/mL (≈ 45.6 µM).

Turning to `COc1cccc2c1OC(c1ccccc1)C([N+](=O)[O-])=C2` (stereo not given), the 50% inhibitory concentration (IC50) was 0.7 µg/mL (≈ 2.47 µM).

With `Cc1ccc(-c2csc3nc(SCC(N)=O)n(-c4ccccc4)c(=O)c23)cc1C`, the IC50 is 2.98 µg/mL (≈ 7.07 µM).

`COC(=O)CSc1[nH]c2ccc(F)cc2c1[N+](=O)[O-]`: the half-maximal inhibitory concentration (IC50) is 23.2 µg/mL (≈ 81.7 µM).

For the molecule `O=C1C(Cl)=C(c2ccc(Cl)cc2)C(=O)N1c1ccc(Cl)cc1`, the IC50 was > 50 µg/mL (inactive).

`O=C(Nc1ccc(C(F)(F)F)cc1)Nc1cccc(Cl)c1`: the 50% inhibitory concentration (IC50) was 0.2 µg/mL (≈ 0.636 µM).

`CC(C)OC(=O)C(C)Oc1ccc2c(-c3ccccc3)cc(=O)oc2c1` (stereo not given): the concentration for half-maximal inhibition (IC50) is 1.63 µg/mL (≈ 4.63 µM).

With `CCOC(=O)COc1ccc(S(=O)(=O)Nc2ccc(C)c(C)c2)cc1`, the IC50 was 1.03 µg/mL (≈ 2.83 µM).

Turning to `c1ccc(COc2ccc(OCCCCn3ccnc3)cc2)cc1`, the concentration for half-maximal inhibition (IC50) was 5.37 µg/mL (≈ 16.7 µM).

`Cc1cc(C)c2[nH]c3ccccc3c2n1`: the 50% inhibitory concentration (IC50) was 1.3 µg/mL (≈ 6.62 µM).

Turning to `O=C(COc1cccc2ccccc12)c1ccc(Cl)cc1`, the IC50 was 34 µg/mL (≈ 115 µM).

As for `Cc1nc2ccccc2n1CCCOc1ccc(Cl)cc1`, the 50% inhibitory concentration (IC50) is 4.87 µg/mL (≈ 16.2 µM).

As for `Cc1cc(Br)c2[nH]c(O)c(N=NC(=O)COc3ccccc3C)c2c1`, the IC50 is 18.7 µg/mL (≈ 46.4 µM).

`S=C(NCCc1ccc(Cl)cc1)Nc1ccc(Nc2ccccc2)cc1`: the IC50 was 2.09 µg/mL (≈ 5.47 µM).

In the case of `S=C(NCCCN1CCN(c2ccc(Cl)cc2)CC1)Nc1cccc(Cl)c1`, the IC50 is 3 µg/mL (≈ 7.09 µM).

On to `Cc1ccc(/C=C/[N+](=O)[O-])cc1Br`, for which the IC50 was 239 µg/mL (≈ 987 µM).

As to `CCOC(=O)N1CCN(CC(O)COc2ccc(C3CCCCC3)cc2)CC1` (stereo not given), the IC50 was 3.69 µg/mL (≈ 9.45 µM).

As for `Cc1ccccc1OCCCCn1cnc2ccccc21`, the 50% inhibitory concentration (IC50) is 6.34 µg/mL (≈ 22.6 µM).
